Where two headings read alike, the source gives them in different places.
Experiments:
[1] = tested on: Snu-739 cells (hepatic carcinoma); assay: MTT cytotoxicity assay; format: cell-based; conditions: for IC50: SNU-739, MTT, 48 h
Protocol: (§1) We incubated hepatic carcinoma (Snu-368 and Snu-739), breast carcinoma (MDA-MB-231 and MCF-7), cisplatin-sensitive lung cancer cells A549, and cisplatin-resistant lung cancer cells A549cisR in 96-well plates in a 5% CO2 atmosphere at 37°C for 24 h (5,000 cells/well). After adding drugs in freshly prepared culture medium (100 μl) and incubating for another 48 h, we added 20 μl MTT (5 mg/ml) and incubated for another 3 h. At last, after the medium was removed, 150 μl DMSO was added. By using a Bio-Rad 680 microplate reader, the absorbance was measured at 570 nm and the IC50 values were calculated using the GraphPad Prism software based on three parallel experiments.
(§2) In vitro assays were firstly conducted to evaluate the inhibitory effect of polyamine-based naphthalimide conjugates 5a-5c, 7a-7b, and 11a-11b on six cancer cell lines, namely, Snu-368 and Sun-739 (hepatoma cell line), MCF-7 (breast carcinoma), MDA-MB-231 (triple negative breast cancer), cisplatin-sensitive lung cancer A549, and resistant A549cisR cells by using traditional MTT tests. Two classic antitumor agents in clinic trials, amonafide and cisplatin, were chosen as the reference drugs (Table 1). The preliminary structure–activity relationship (SAR) can be obtained from the in vitro biological results.

[2] = tested on: MDA-MB-231 cells (triple negative breast cancer); assay: MTT cytotoxicity assay; format: cell-based; conditions: MDA-MB-231; for IC50: Homo sapiens, MTT, 48 h
Protocol: as §1, §2

[3] = tested on: MCF-7 cells (breast carcinoma); assay: MTT cytotoxicity assay; format: cell-based; conditions: for IC50: Homo sapiens, MCF7, MTT, 48 h
Protocol: as §1, §2

[4] = tested on: cisplatin-sensitive lung cancer cells A549; assay: MTT cytotoxicity assay; format: cell-based; conditions: A549; for IC50: Homo sapiens, MTT, 48 h
Protocol: as §1, §2

[5] = tested on: Snu-368 cells (hepatic carcinoma); assay: MTT cytotoxicity assay; format: cell-based; conditions: for IC50: MTT, 48 h
Protocol: as §1, §2

[6] = tested on: cisplatin-resistant lung cancer cells A549cisR; assay: MTT cytotoxicity assay; format: cell-based; conditions: for RF (resistance factor): IC50 in A549cisR cells/IC50 in A549 cells; for IC50: MTT, 48 h
Protocol: as §1, §2

[7] = tested on: HL-7702 (normal liver cell); assay: MTT cytotoxicity on matched normal cells; format: cell-based; conditions: for IC50: Homo sapiens
Protocol: as §1
The selectivity for cancer cells over normal healthy cells is important for ideal anticancer agents, thereby mitigating undesired toxic side effects associated with chemotherapy. The selectivity of polyamine-based dinitro-naphthalimide conjugates 5a-5c was evaluated by Snu-368 and Snu-739 (hepatic carcinoma), and the matched normal cells HL-7702 (normal liver cell). Moreover, dinitro-naphthalimide conjugates 5a-5c (SI 1.94–7.47) show lower cytotoxicity in normal cells.

[8] = tested on: polyamine oxidase (PAO) in Snu-739 cells; assay: PAO assay kit; format: cell-based; conditions: Snu-739, 10 μM, 24 h
Description: (§3) We measured the total PAO level using a PAO assay kit according to our previous report (Liu et al., [2019]) (Hepeng Biotechnology, Cat. HEPENGBIO156).

[9] = tested on: polyamine oxidase (PAO) in Snu-368 cells; assay: PAO assay kit; format: cell-based; conditions: Snu-368, 10 μM, 24 h
Description: as §3

[10] = tested on: Put, Spd, and Spm in Snu-368 cells; assay: Polyamine contents assay (HPLC, dansyl derivatives); format: cell-based; conditions: Snu-368, 24 h
Description: (§4) According to our previous report (Wang et al., [2012]; Li et al., [2016], [2018]; Dai et al., [2017a]; Ma et al., [2017a],[b], [2018]; Liu et al., [2019]), the contents of Put, Spd, and Spm were detected by a G1321A fluorescence detector in both Snu-368 and Snu-739 cells. Cells were harvested and dansyl chloride was used as the derivation reagent. After converting to the corresponding dansyl derivatives, Put, Spd, and Spm were separated by using High Performance Liquid Chromatogra (HPLC) (Agilent 1260, Agilent Technologies, USA) with a C18 chromatographic column (25 × 4.6 mm, 5 μm). As the internal standard substance, 1,6-diaminohexane was used. The excitation and emission wavelengths were 340 and 515 nm, separately. The mobile phase was methanol–water from 65:35 to 100:0 within 30 min.

[11] = tested on: Put, Spd, and Spm in Snu-739 cells; assay: as above; format: cell-based; conditions: Snu-739, 24 h
Description: as §4

p53 in Snu-739 cells = assay: Western blot of p53; format: cell-based; conditions: Snu-739, 24 h
Protocol: We performed western blot analysis to determine the contents of p53 after treatment by 5c for 5, 10, and 15 μM for 24 h. After washing three times with PBS, we harvested and centrifuged the cells, which were lysed with a RIPA buffer (Beyotime, China). The total contents of protein were determined by a BCA assay kit (Beyotime, China). At 100°C for 10 min, the total lysates were denatured in a 5 × SDS-loading buffer. Equal amounts of total proteins were separated by 12% SDS-PAGE. Dried skimmed milk (5%) was used to block the separated protein in Tris Buffered Saline Tween (TBST) at room temperature for 1 h. And then the corresponding primary antibodies and the appropriate HRP-conjugated secondary antibody were used to incubate with the separated protein. By ECL plus reagents (Beyotime, Jiangsu, China), we detected the expression of p53.

Snu-739 cells = assay: Annexin V-FITC/PI staining, flow cytometry; format: cell-based
Protocol: Annexin V-FITC/PI staining was used to detect the apoptosis of Snu-739 cells by FCM (flow cytometry). Firstly, we plated the cells in six-well plates (1 × 10^5 cells/well). 5c 10 μM and amonafide 10 μM were added and incubated for 24 h. And then we harvested the cells and washed three times with PBS. Then the protocol was stained according to our previous report (Wang et al., [2012]; Li et al., [2016], [2018]; Dai et al., [2017a]; Ma et al., [2017a],[b]; Ma et al., [2018]; Liu et al., [2019]) and was performed by FCM (BD Biosciences, San Jose, CA, USA).

HCC xenografts = assay: In vivo antitumor assay, HCC xenografts; conditions: for tumor suppression (inhibition rate, tumor weight): tail vein, once every day for 7 days
Description: Healthy BALB/c mice (Cat. SCXK 2016-0006, Beijing, China) aged 5 weeks were used for the determination of anticancer activity. We obtained BALB/c mice from the Laboratory Animal Center, Academy of Military Medical Science. They were raised in compliance with the Guide for the Care and Use of Laboratory Animals. The weight of healthy BALB/c mice is 18–22 g.
We firstly injected HCC cells with 1 × 10^6 cells per mouse to determine the anticancer activity. After a week, the tumors increased to 80–120 mm^3. The mice were divided into four groups for 5c (3 mg/kg), 5c (5 mg/kg), the positive control amonafide (5 mg/kg), or the negative control physiological saline. We injected 5c or amonafide via the tail vein every day for a total of seven treatments. Body weight was determined every day. And then the mice were sacrificed after 7 days. The tumor tissues were weighed and the inhibition rate [((average tumor weight of negative control group – average tumor weight of the drug treated or positive control group)/average tumor weight of control group) × 100] was calculated. The organ index [(organ weight/body weight) × 100%] was also counted including heart, liver, kidney, lung, and spleen at the last day. Both 5c and amonafide were dissolved in glucose injection. And they were used immediately after preparation.
The highest FI levels in Snu-739 also indicate a significant therapy for HCC. Therefore, HCC animal models were used to test the in vivo antitumor activities. Mice bearing HCC xenografts were treated with 5c (3 mg/kg), 5c (5 mg/kg), the positive control amonafide (5 mg/kg), and normal saline (negative control) once every day for 7 days by tail vein (Figure 3).

[12] = tested on: six cancer cell lines (Snu-368, Snu-739, MCF-7, MDA-MB-231, A549, A549cisR); assay: MTT cytotoxicity assay, whole panel; format: cell-based; conditions: versus amonafide and cisplatin
Protocol: as §1, §2

With `O=C1c2cc([N+](=O)[O-])cc3cc([N+](=O)[O-])cc(c23)C(=O)N1CCCCNCCCNC1CCCCC1` [5a] the IC50 [1] was 2.16 ± 0.1 µM, the IC50 [2] was 1190 ± 120 nM and the IC50 [3] was 2300 ± 180 nM. The IC50 [4] was 2170 ± 200 nM, the IC50 [5] was 2940 ± 60 nM and the “RF (resistance factor)” value [6] was 1.67. For the same molecule, the IC50 [6] was 3620 ± 150 nM, the “SI (selectivity index) IC50 in HL-7702/IC50 in Snu-368” value [7] was 2.14 and the “SI (selectivity index) IC50 in HL-7702/IC50 in Snu-739” value [7] was 2.92. It also gave an IC50 ([7]; L02, read-out: IC50 HL-7702) of 6.3 ± 0.23 µM.

For `O=C1c2cc([N+](=O)[O-])cc3cc([N+](=O)[O-])cc(c23)C(=O)N1CCCCNCCCCNC1CCCCC1` [5b], the IC50 [1] was 3.89 ± 0.35 µM, the IC50 [2] was 1070 ± 100 nM and the IC50 [3] was 1250 ± 100 nM. The IC50 [4] was 1750 ± 150 nM, the IC50 [5] was 2720 ± 250 nM and the “RF (resistance factor)” value [6] was 1.30. The IC50 [6] was 2270 ± 250 nM, the “SI (selectivity index) IC50 in HL-7702/IC50 in Snu-368” value [7] was 2.78 and the “SI (selectivity index) IC50 in HL-7702/IC50 in Snu-739” value [7] was 1.94. It also gave an IC50 ([7]; L02, read-out: IC50 HL-7702) of 7.56 ± 0.43 µM.

In the case of `O=C1c2cc([N+](=O)[O-])cc3cc([N+](=O)[O-])cc(c23)C(=O)N1CCCCNCCCNC1CC1` [5c], the “relative PAO activity versus control group” value [8] is reported as 1.5–2 folds, the “relative PAO activity versus control group” value [9] is reported as 1.5–2 folds and the IC50 [1] is reported as 0.76 ± 0.05 µM. The “FI (fold increase) IC50(amonafide)/IC50(5c)” value ([1]; Snu-739) was 17.08, the “FI (fold increase) IC50(cisplatin)/IC50(5c)” value ([1]; Snu-739) was 13.18 and the IC50 [2] was 1330 ± 120 nM. For the same molecule, the “FI (fold increase) IC50(amonafide)/IC50(5c)” value [2] was 11.20, the “FI (fold increase) IC50(cisplatin)/IC50(5c)” value [2] was 12.02 and the IC50 [3] was 1350 ± 150 nM. The “FI (fold increase) IC50(amonafide)/IC50(5c)” value ([3]; MCF-7) was 4.36, the “FI (fold increase) IC50(cisplatin)/IC50(5c)” value ([3]; MCF-7) was 7.11 and the “FI (fold increase) IC50(amonafide)/IC50(5c)” value [4] was 3.59. The “FI (fold increase) IC50(cisplatin)/IC50(5c)” value [4] was 5.73, the IC50 [4] was 1920 ± 230 nM and the IC50 [5] was 1090 ± 100 nM. For the same molecule, the “FI (fold increase) IC50(amonafide)/IC50(5c)” value ([5]; Snu-368) was 12.83, the “FI (fold increase) IC50(cisplatin)/IC50(5c)” value ([5]; Snu-368) was 15.02 and the “FI (fold increase) IC50(amonafide)/IC50(5c)” value ([6]; A549cisR) was 13.23. The “FI (fold increase) IC50(cisplatin)/IC50(5c)” value ([6]; A549cisR) was 48.63, the “RF (resistance factor)” value [6] was 0.43 and the IC50 [6] was 830 ± 80 nM. The “FI (fold increase) amonafide/5c in RF column” value ([6]; ratio of RF values) was 3.70, the “contents of Put, Spd, and Spm versus control group” value [10] was “downregulated” and the “contents of Put, Spd, and Spm versus control group” value [11] was “downregulated”. The p53 protein expression (p53 in Snu-739 cells) was “upregulated”, the early apoptotic cells (Snu-739 cells; 10 μM, 24 h) was 35.00% and the late apoptotic cells (Snu-739 cells; 10 μM, 24 h) was 38.50%. The apoptotic cells (Snu-739 cells; total of early and late) was 73.50%, the “SI (selectivity index) IC50 in HL-7702/IC50 in Snu-368” value [7] was 5.21 and the “SI (selectivity index) IC50 in HL-7702/IC50 in Snu-739” value [7] was 7.47. For the same molecule, the “SI (selectivity index), range over Snu-368 and Snu-739” value ([7]; HL-7702 versus Snu-368 and Snu-739) was 5.21–7.47, the IC50 ([7]; L02, normal liver cell, read-out: IC50 HL-7702) was 5.68 ± 0.83 µM and the “tumor suppression (inhibition rate, tumor weight)” value (HCC xenografts; 3 mg/kg) was 57.97%. The “tumor suppression (inhibition rate, tumor weight)” value (HCC xenografts; 5 mg/kg) was 65.90%, the average tumor volume (HCC xenografts; day 7, control group 900 mm^3, dose not stated) was 480 mm^3 and the “organ weight indexes / toxicological profile in vivo” value (HCC xenografts; heart, liver, kidney, lung, spleen, end of experiment) was “no obvious pathological changes”. For the same molecule, the “FI (fold increase), range over cell lines” value [12] was 3.59–48.63.

In the case of `Nc1cc2c3c(cc(N)cc3c1)C(=O)N(CCCCNCCCNC1CC1)C2=O` [7a], the IC50 [1] is reported as 25.8 ± 2.9 µM, the IC50 [2] is reported as 26900 ± 2650 nM and the IC50 [3] is reported as 8620 ± 850 nM. For the same molecule, the IC50 [4] was 14000 ± 1390 nM, the IC50 [5] was over 30000 nM and the IC50 [6] was 17400 ± 1680 nM.

From PMC7160362, “A Polyamine-Based Dinitro-Naphthalimide Conjugate as Substrates for Polyamine Transporters Preferentially Accumulates in Cancer Cells and Minimizes Side Effects in vitro and in vivo” (Frontiers in Chemistry, 2020)
